Measurements reported in US11617748B2, “Meclozine derivatives and diclazuril derivatives for use in the prevention and/or the treatment of disorders associated to the inflammation induced by P. acnes” (priority 2016, dated 2023).

Tests used:
Format in all cases: cell-based, human
mTOR = assay: Western blot of p-mTOR/mTOR in P. acnes-stimulated HaCaT cells; settings: 25 μM, 24 h pre-treatment
Description: (§1) Western Blot analysis. Whole cell protein extracts (25 μg) were separated by electrophoresis (LDS-PAGE) under denaturing conditions with NuPAGE Novex 4-12% Bis-Tris gel (1 mm, 12 wells, Invitrogen, UK) and proteins were transferred onto nitrocellulose membranes and saturated in 20 ml of saturation buffer consisting of TBS 1× (Tris Buffered Saline) containing 200 mM Tris, 1.4 M NaCl (pH 7.6), 5% no fat milk, 0.1% Tween 20 for 1 h. […] After washing to remove unbound antibodies, bound primary antibodies were detected by incubation for 1 h using secondary antibody against rabbit- and mouse IgG (Santa Cruz Biotechnology, SC-2357, 1:5000 and SC-2005, 1:5000, respectively). Unbound material was removed by washing and peroxidase activity was detected in a chemiluminescence assay (WesternBright ECL, Advansta, Menlo Park, USA). […]

PPARβ = assay: Western blot of PPARβ expression in P. acnes-stimulated HaCaT cells; settings: 25 μM, 24 h pre-treatment
Description: as §1

hBD-2 production = hBD-2 production by M5-stimulated NHDK, in vitro psoriasis-like model (ELISA); settings: NHDK + M5, 48 h
Description: Cell culture, pretreatment and stimulation.
(§2) ELISA. Human IL-1β, IL-8, hBD-2 and TNF-α protein concentration were measured in the supernatants of stimulated cells using various ELISA Sets (all from Ready-Set-Go from eBioscience, except hBD-2 measurements: Human DEFB4A/BD-2 ELISA Kit from LSBio) according to the manufacturer's instructions. We used serial dilutions of recombinant human IL-1β, IL-8, hBD-2 and TNF-α for standard curve. The optical density was determined at 450 nm at a wavelength correction of 540 nm.

ICAM-1 = assay: Western blot of ICAM-1 expression in P. acnes-stimulated HaCaT cells; settings: 25 μM, 24 h pre-treatment
Description: as §1

IL-1β production = assay: PGN- and LTA-induced IL-1β production in ThP-1 monocytes (ELISA); settings: ThP-1, 6.25 μM, 24 h pre-treatment, PGN or LTA 5-20 μg/ml
Description: as §2

p38 = assay: Western blot of p-p38/p38 in P. acnes-stimulated HaCaT cells; settings: 25 μM, 24 h pre-treatment
Description: as §1

Cox-2 = assay: Western blot of Cox-2 expression in P. acnes-stimulated HaCaT cells; settings: 25 μM, 24 h pre-treatment
Description: as §1

ERK = assay: Western blot of p-ERK/ERK in P. acnes-stimulated HaCaT cells; settings: 24 h pre-treatment; for phosphorylation of ERKs induced by P. acnes: 10 μM; for phosphorylation of ERK induced by P. acnes: 25 μM
Description: Western Blot analysis. Whole cell protein extracts (25 μg) were separated by electrophoresis (LDS-PAGE) under denaturing conditions with NuPAGE Novex 4-12% Bis-Tris gel (1 mm, 12 wells, Invitrogen, UK) and proteins were transferred onto nitrocellulose membranes and saturated in 20 ml of saturation buffer consisting of TBS 1× (Tris Buffered Saline) containing 200 mM Tris, 1.4 M NaCl (pH 7.6), 5% no fat milk, 0.1% Tween 20 for 1 h. After washing three times for 15 min with 15 ml of TBS/T buffer [1×TBS, 0.1% Tween-20], membranes were incubated overnight with gentle mixing at 4° C. with 10 ml of rabbit polyclonal primary antibodies against human ICAM-1 (SC-7891, 1:500), PPARα (SC-398394, 1:250), PPARβ (SC-74517, 1:200), PPARγ (SC-7196, 1:500), IκB (SC-371, 1:500), p-IκB (SC-7977, 1:500), Cox-2 (SC-7951, 1:250), p-mTOR (CS, Ref 2974, 1:1000), mTOR (CS, Ref 2972, 1:1000), p-p38 (SC-17852, 1:500), p38 (SC-535, 1:250), ERK (SC-94, 1:500), JNK (SC-571, 1:500), and mouse monoclonal primary antibodies against human p-PI3 kinase (CS, Ref 4228, 1:250), PI3 kinase (CS, Ref 4257, 1:250), p-Akt1/2/3 (SC-81433, 1:500), p-ERK (SC-7383, 1:500), p-JNK (SC-6254, 1:500), -actin used to control loading, (SC-47778, 1:1000) diluted in TBS/T supplemented with 5% BSA (antibodies were purchased from Santa Cruz Biotechnology, Inc., Santa Cruz, Calif., USA abbreviated SC; and from Cell Signaling Technology, Inc. Leiden, The Netherlands abbreviated CS above). After washing to remove unbound antibodies, bound primary antibodies were detected by incubation for 1 h using secondary antibody against rabbit- and mouse IgG (Santa Cruz Biotechnology, SC-2357, 1:5000 and SC-2005, 1:5000, respectively). Unbound material was removed by washing and peroxidase activity was detected in a chemiluminescence assay (WesternBright ECL, Advansta, Menlo Park, USA).
The molecular basis for the inhibition of IL-8 production by diclazuril and meclozine has been investigated, in particular it has been evaluated if they interfered with signaling pathways known to be activated when keratinocytes are stimulated with P. acnes. It has first been confirmed the activation of IL-8 production when cells were stimulated by P. acnes while pre-treatment with both, diclazuril and meclozine, inhibit such production (FIG. 4A).
We also shown that the activation of HaCaT keratinocytes by P. acnes led to the activation of p-ERK, p-p38, p-JNK, p-PKC, p-Akt, p-mTOR (FIG. 15, panel P. acnes alone) and p-PI3K (FIG. 16, panel P. acnes alone).

PPARα = assay: Western blot of PPARα expression in P. acnes-stimulated HaCaT cells; settings: 25 μM, 24 h pre-treatment
Description: as §1

HaCaT cells = assay: MTT cell viability assay on HaCaT keratinocytes
Description: Cell culture, pretreatment and stimulation. The immortalized human keratinocyte cell line HaCaT, fibroblast MRC5 were grown in Dulbecco's modified Eagle's medium-Glutamax-I (DMEM) with 1 mM sodium pyruvate. […] DMEM and RPMI were supplemented with 0.1% and 10% heat-inactivated fetal calf serum (Invitrogen), and an antibiotic/antimycotic solution (10 U/ml Pencillin, 10 μg/ml Streptomycin, 0.25 μg/ml Amphoterin) at 37° C. in humidified atmosphere containing 5% CO2 as described (Life Technologie). Primary human keratinocytes (NHDK) and fibroblast (HDF) were grown in the KGM-Gold and in FGM-2 Bullet Kit, respectively, as described by the manufacturer (Lonza). The immortalized cell lines were routinely tested to assess the absence of Mycoplasma infection. Cells, cultivated in 6- or 96-well polystyrene plates, were pretreated with appropriate molecule solution for 1 to 48 h at 37° C. in the dark at the appropriate concentration. Then, for stimulation, cells were incubated for 15 min to 24 h with the P. acnes suspension adjusted at the appropriate concentration at 37° C. in 5% CO2. For experiences using an in vitro model of psoriasis, the primary human keratinocytes (NHDK) were grown in culture medium for 24 hours.
Cell viability assays. Viability of cells was estimated by using the MTT assay where cells were incubated with a 0.2% MTT solution in cell culture medium for 4 h at 37° C. The MTT solution was then discarded and DMSO added to solubilize the MTT-formazan cristals produced in living cells. After thorough mixing, the absorbance was measured at 540 nm.

IL-8 production = assay: P. acnes-induced IL-8 production in HaCaT keratinocytes (ELISA); settings: HaCaT cells pre-treated 24 h, no P. acnes stimulation

Row | Structure (SMILES) | phosphorylation of mTOR induced by P. acnes (mTOR) | expression of PPARβ (PPARβ) | effect on hBD-2 production, in words (hBD-2 production; 0.39 to 12.5 μM) | P. acnes-induced ICAM-1 expression (ICAM-1) | decrease of IL-1β production (average) (IL-1β production) | phosphorylation of p38 induced by P. acnes (p38) | expression of Cox-2 (Cox-2) | phosphorylation of ERKs induced by P. acnes (ERK) | phosphorylation of ERK induced by P. acnes (ERK) | expression of PPARα (PPARα) | impact on cell viability (MTT), 48 h pre-treatment (HaCaT cells) | IL-8 production in pretreated cells without being stimulated (IL-8 production) | decrease of hBD-2 production (hBD-2 production; at 12.5 μM)
1 | Cc1cccc(CN2CCN(C(c3ccccc3)c3ccc(Cl)cc3)CC2)c1 (stereo not drawn) [meclozine, Meclozine] | did not cause any changed | strongly decrease | no effect | decreased its expression | 36% | prevented the phosphorylation | strongly decrease | prevented the phosphorylation of ERKs | prevented the phosphorylation | strongly decrease | without any major impact on cell viability | no change | –
2 | N#CC(c1ccc(Cl)cc1)c1c(Cl)cc(-n2ncc(=O)[nH]c2=O)cc1Cl (stereo not drawn) [diclazuril, Diclazuril] | did not cause any changed | no change | – | no effect | 64% | prevented the phosphorylation | decrease | prevented the phosphorylation of ERKs | prevented the phosphorylation | no change | without any major impact on cell viability | no change | 68%
